Reference: publication PMC9936582, “Sulfamate Acetamides as Self-Immolative Electrophiles for Covalent Ligand-Directed Release Chemistry” (Journal of the American Chemical Society, 2023)

Test system: Mino cells
Test: Competitive pull-down proteomics with ibrutinib alkyne probe in Mino cells
Assay type: cell-based, human
Details: 1 µM compound 1 h
Experimental: (10 μM). This was followed by a reaction with biotin-azide using CuAAC, enrichment of the labeled proteins, and their quantification by tryptic digestion and LC/MS/MS analysis.
The samples were then precipitated with methanol: chloroform (1 mL of methanol, 250 μL of chloroform, and 750 μL of water), washed with 1 mL of methanol, and air-dried. The samples were solubilized and bound to streptavidin agarose beads in PBS for 3 h at 25 °C. The beads were washed, centrifuged, and resuspended in Tris 50 mM pH 8 and transferred to a clean Eppendorf tube. After this, the bound proteins were eluted by boiling with 5% SDS then reduced with DTT, alkylated with iodoacetamide, and digested with trypsin. The samples were run on LC/MS/MS. The detailed procedure is available in the Supplementary Information. The mass spectrometry proteomics data have been deposited to the ProteomeXchange Consortium via the PRIDE[67] partner repository with the dataset identifiers PXD038301 and PXD038375.
400 µL of 0.1% IGEPAL/PBS were added, and the beads were washed 3 times with 0.1% IGEPAL/PBS, 3 times PBS and 3 times water. The peptides were eluted by incubation with 200 µL of 50% acetonitrile + 0.1% TFA for 5 min, followed by two more portions of 100 µL of 50% acetonitrile + 0.1% TFA. The samples were dried by speedvac, and further purified using Oasis desalting columns (Waters), after which they were dried and run on the instrument.
Pull-down samples preparation […]
incubation with 10 μM “probe 4” for another hour. The samples were prepared in quadruplicates. The cells were washed with cold PBS, from the flasks and frozen. Then, each sample was lysed in 200 μL of […]
The protein in the supernatant was quantified using BCA. For each sample, 250 μL of 1.7 mg/mL was prepared. At this point, 5 μL of 5 mM biotin azide and 9 μL of 100 mM CuSO4/THPTA complex were added. The click reaction was initiated by the addition of 7.5 μL of 150 mM sodium ascorbate, and the samples are incubated at room temperature for 1 h. The samples were then precipitated with methanol/chloroform (1 mL methanol, 250 μL chloroform, 750 μL water), washed with 1 mL of methanol, and air-dried. […]
and heated to 95 °C for 5 min. The samples were then diluted to 1.5 mL with PBS, and 50 μL of streptavidin agarose beads, prewashed with 0.2% SDS in PBS, was added, followed by 3 h incubation at room temperature. Following the incubation, the beads were centrifuged at 2000g for 2 min and washed four times with the following buffers (4 mL in each wash): 2% SDS; 0.1% sodium deoxycholate, 1% Triton X-100, 0.5 M NaCl, 1 mM EDTA, 50 mM HEPES pH = 7.5; 0.25 M NaCl, 0.5% IGEPAL, 0.5% sodium deoxycholate, 1 mM EDTA, 10 mM Tris pH = 8.1; 50 mM Tris pH = 7.4, 50 mM NaCl. […]
with heating to 95 °C for 6 min and occasional vortexing. Finally, the beads were spun down (2 min 2000g) and 80 μL of supernatant was removed to separate tubes. […]
had cooled, 4 μL of iodoacetamide (0.2 M) were added, and the samples were incubated in the dark for 40 min at room temperature. […]
samples were diluted 6-fold with 90% methanol + 50 mM ammonium bicarbonate. The samples were then […]
loaded on S-trap micro columns (Protify), and the columns were washed three times with 150 μL of 90% methanol + 50 mM ammonium bicarbonate. Then, 20 μL of 0.05 μg/μL of trypsin in 50 mM ammonium bicarbonate was added to the columns and the samples were incubated at 47 °C for 90 min. Then, 40 μL of 50 mM ammonium bicarbonate was added, followed by centrifugation and addition of 1 μL of 0.5 μg/μL trypsin to the eluate, which was incubated at 37 °C overnight. The column itself was then eluted using 40 μL of 0.2% formic acid and 40 μL 0.2% formic acid in 50% acetonitrile into a separate tube, which was kept at 4 °C. The two eluates were then combined and evaporated. The samples were further desalted using […]

Q: Which results are given for Nc1ncnc2c1c(-c1ccc(Oc3ccccc3)cc1)nn2[C@@H]1CCCN(C(=O)COS(=O)(=O)NCc2ccccc2)C1 [3d]?
A: Log2(Fold Change) (4F2_HUMAN): -0.3468; Log2(Fold Change) (AATM_HUMAN): 1.62; Log2(Fold Change) (ACSF3_HUMAN): 0.1421; Log2(Fold Change) (AHNK_HUMAN): 2.176; Log2(Fold Change) (ALG1_HUMAN): -0.2223; Log2(Fold Change) (ANXA1_HUMAN): 2.107; Log2(Fold Change) (APEX1_HUMAN): 0.5549; Log2(Fold Change) (ARP3_HUMAN;ARP3B_HUMAN;ARP3C_HUMAN): 0.3683; Log2(Fold Change) (AT1A1_HUMAN;AT1A2_HUMAN;AT1A4_HUMAN;ATP4A_HUMAN;AT12A_HUMAN): 0.9797; Log2(Fold Change) (ATP5H_HUMAN): 0.3377; Log2(Fold Change) (ATPK_HUMAN): 0.2949; Log2(Fold Change) (ATPO_HUMAN): -0.283; Log2(Fold Change) (ATX10_HUMAN): 0.3503; Log2(Fold Change) (BST2_HUMAN): 0.9798; Log2(Fold Change) (BZW1_HUMAN): 0.5267; Log2(Fold Change) (C1TM_HUMAN): -0.1466; Log2(Fold Change) (CALL5_HUMAN): -0.1469; Log2(Fold Change) (CD20_HUMAN): -0.02247; Log2(Fold Change) (CD38_HUMAN): 0.01573; Log2(Fold Change) (CLCA_HUMAN): -0.02966; Log2(Fold Change) (CLH1_HUMAN;CLH2_HUMAN): 2.15; Log2(Fold Change) (COX2_HUMAN): -0.2094; Log2(Fold Change) (CRERF_HUMAN): -0.7334; Log2(Fold Change) (DD19B_HUMAN;DD19A_HUMAN): -0.05233; Log2(Fold Change) (DDX3X_HUMAN;DDX3Y_HUMAN;DDX4_HUMAN): 1.382; Log2(Fold Change) (DNJC7_HUMAN): 0.6525; Log2(Fold Change) (DSC1_HUMAN): -0.7969; Log2(Fold Change) (EF1B_HUMAN): -0.6176; Log2(Fold Change) (EPIPL_HUMAN): 0.9511; Log2(Fold Change) (FPPS_HUMAN): -0.6242; Log2(Fold Change) (GCR_HUMAN): 0.4122; Log2(Fold Change) (GLYM_HUMAN;GLYC_HUMAN): 1.206; Log2(Fold Change) (GSDMA_HUMAN): 0.09253; Log2(Fold Change) (HMCS1_HUMAN): 0.6183; Log2(Fold Change) (HXK2_HUMAN;HXK3_HUMAN): 0.4444; Log2(Fold Change) (IF4A1_HUMAN): 0.3836; Log2(Fold Change) (IF4A3_HUMAN): 0.3127; Log2(Fold Change) (IF4H_HUMAN): 0.66; Log2(Fold Change) (IGLL5_HUMAN;IGL1_HUMAN;IGLC1_HUMAN): -2.924; Log2(Fold Change) (LAPM5_HUMAN): 0.7164; Log2(Fold Change) (LAT1_HUMAN): -0.2987; Log2(Fold Change) (LMNA_HUMAN): 1.21; Log2(Fold Change) (MATR3_HUMAN): 1.3535; Log2(Fold Change) (MBB1A_HUMAN): 0.0529; Log2(Fold Change) (MCCA_HUMAN): -0.3018; Log2(Fold Change) (MIC19_HUMAN): 0.1905; Log2(Fold Change) (MP2K7_HUMAN): 1.5282; Log2(Fold Change) (NCEH1_HUMAN): 1.226; Log2(Fold Change) (NT5D1_HUMAN): 2.611; Log2(Fold Change) (NUCL_HUMAN): 0.5701; Log2(Fold Change) (OTUB1_HUMAN): 0.2048; Log2(Fold Change) (P121C_HUMAN;P121A_HUMAN): 0.4168; Log2(Fold Change) (PARK7_HUMAN): 1.57; Log2(Fold Change) (PCKGM_HUMAN): 0.1766; Log2(Fold Change) (PEBP1_HUMAN): -0.8247; Log2(Fold Change) (PEPL_HUMAN): 0.8796; Log2(Fold Change) (PFKAL_HUMAN): -0.4948; Log2(Fold Change) (PGK1_HUMAN;PGK2_HUMAN): 0.5127; Log2(Fold Change) (PIP_HUMAN): 0.8481; Log2(Fold Change) (PLAK_HUMAN;CTNB1_HUMAN): -0.4311; Log2(Fold Change) (POF1B_HUMAN): 0.5955; Log2(Fold Change) (PSA3_HUMAN): 0.515; Log2(Fold Change) (PSB8_HUMAN): 0.8443; Log2(Fold Change) (RAB1A_HUMAN;RAB1B_HUMAN;RAB1C_HUMAN): 0.5794; Log2(Fold Change) (RANG_HUMAN;IPKB_HUMAN): -0.3375; Log2(Fold Change) (RAP1B_HUMAN;RAP1A_HUMAN;RP1BL_HUMAN;RAB3D_HUMAN): 0.1236; Log2(Fold Change) (RFTN1_HUMAN): 0.055; Log2(Fold Change) (RL13A_HUMAN;R13P3_HUMAN): 0.2889; Log2(Fold Change) (RL18_HUMAN): 0.278; Log2(Fold Change) (RLA1_HUMAN): 1.604; Log2(Fold Change) (RN3P2_HUMAN): -0.7545; Log2(Fold Change) (RS28_HUMAN): 1.706; Log2(Fold Change) (RTN4_HUMAN): -0.003108; Log2(Fold Change) (RUVB2_HUMAN): 0.8199; Log2(Fold Change) (S38A1_HUMAN): 0.5709; Log2(Fold Change) (S61A1_HUMAN;S61A2_HUMAN): 0.03923; Log2(Fold Change) (SAE2_HUMAN): 0.8525; Log2(Fold Change) (SATT_HUMAN): -0.2942; Log2(Fold Change) (SCRB1_HUMAN): 0.8748; Log2(Fold Change) (SIAT1_HUMAN): 0.1522; Log2(Fold Change) (SO4A1_HUMAN): 1.533; Log2(Fold Change) (SPB4_HUMAN): 2.369; Log2(Fold Change) (SPB12_HUMAN): -0.3346; Log2(Fold Change) (SSDH_HUMAN): 1.965; Log2(Fold Change) (SUCB1_HUMAN): 0.8691; Log2(Fold Change) (TAP1_HUMAN): -1.533; Log2(Fold Change) (TAP2_HUMAN;ABCB8_HUMAN;ABCBA_HUMAN): 0.8469; Log2(Fold Change) (TBB2B_HUMAN;TBB2A_HUMAN): -0.1459; Log2(Fold Change) (TSN_HUMAN): -0.1715; Log2(Fold Change) (TX264_HUMAN): 0.3926; Log2(Fold Change) (UB2V2_HUMAN;UB2V1_HUMAN): 1.306; Log2(Fold Change) (UBP5_HUMAN): -0.01896; Log2(Fold Change) (UBP14_HUMAN): 1.116; Log2(Fold Change) (URP2_HUMAN): 0.2486; Log2(Fold Change) (USMG5_HUMAN): 0.3682; Log2(Fold Change) (VDAC1_HUMAN): 0.3637; Log2(Fold Change) (VEZA_HUMAN): -0.126; Log2(Fold Change) (XPO2_HUMAN): 0.1341; Log2(Fold Change) (XPO5_HUMAN): 0.1456; Log2(Fold Change) (ZDHC8_HUMAN): -1.527
